How the values were obtained:
[1] = system: green peach aphid (Myzus persicae); assay: Contrasting example: Myzus persicae spray test (MYZUPE); type: in vivo; conditions: MYZUPE, 100 g ai/ha, 6 dat
Procedure, shortened: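 Chinese cabbage leaf discs carrying all stages of the aphid were sprayed with compound in acetone/dimethylformamide, diluted with water containing alkylaryl polyglycol ether emulsifier. After the set period, efficacy was scored as % of aphids killed (100% = all dead, 0% = none).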

[2] = system: southern root-knot nematode (Meloidogyne incognita); assay: Meloidogyne incognita test (gall formation on lettuce); type: in vivo; conditions: application rate 20 ppm; after 14 days
Experimental: Meloidogyne incognita Test
Solvent: 125.0 parts by weight of acetone
To produce a suitable preparation of active compound, 1 part by weight of active compound is mixed with the stated amount of solvent and the concentrate is diluted with water to the desired concentration.
Vessels are filled with sand, active compound solution, an egg/larvae suspension of the southern root-knot nematode (Meloidogyne incognita) and lettuce seeds. The lettuce seeds germinate and the plants develop. The galls develop on the roots.
After 14 days, the nematicidal efficacy in % is determined by the formation of galls. 100% means that no galls were found; 0% meant that the number of galls on the treated plants corresponds to the untreated control.

[3] = system: green peach aphid (Myzus persicae); assay: Myzus persicae spray test (Chinese cabbage leaf discs); type: in vivo; conditions: application rate 500 g/ha; after 5 or 6 days; Chinese cabbage leaf discs
Procedure, shortened: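 Leaf discs bearing all aphid stages are sprayed with compound dissolved in acetone/DMF and diluted with water containing 1000 ppm emulsifier. Efficacy in % is scored after 5 or 6 days: 100% means all aphids killed, 0% none killed.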

[4] = log P by HPLC on reversed-phase C18 columns (OECD Guideline 117); type: physicochemical; conditions: for logP[a]: method [a]; for logP[b]: method [b]
Procedure, shortened: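 Reversed-phase C18 HPLC per OECD 117, LC-MS with a linear 10% to 95% acetonitrile gradient. Acidic method at pH 2.7 with 0.1% formic acid; neutral method at pH 7.8 with 0.001 M ammonium hydrogencarbonate.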

SMILES	% efficacy [1] [%]	nematicidal efficacy (formation of galls) [2] [%]	efficacy (aphids killed) [3] [%]	logP[a] [4]	logP[b] [4]
CN(C(=O)c1cnc(SCc2ccccc2)n1C)c1cccnc1 [I-A-7]	70	90	90	1.68	1.91
CC(C)=CCSc1ncc(C(=O)N(C)c2cccnc2)n1C [I-A-35]		90		1.61	1.96

Source: patent US10368545B2, “Substituted 2-thioimidazolylcarboxamides as pesticides” (BAYER CROPSCIENCE AKTIENGESELLSCHAFT, priority 2015, dated 2019)
